This is an account of results in ChEMBL document CHEMBL1201862, “PubChem BioAssay data set” (2004).

Some test systems named below: SF-268; OVCAR-8; ACHN; TK-10; A549; Hs-578T; RXF 393; SK-MEL-5; MCF7; MDA-N; SN12C; COLO 205; IGROV-1; HOP-62; LOX IMVI; OVCAR-5; NCI-H23; U-251; MOLT-4; NCI-H226.
Holding throughout (assay): NCI tumour cell line growth inhibition, 48 h

Molecules are shown by their SMILES.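 A five-concentration, 48-hour dose response in 96-well plates underlies each endpoint, interpolated linearly between surrounding concentrations. GI50: concentration for 50% inhibition of growth.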 Active and inactive are the calls of the source. Cut-off read from the data, not from the text of the source: active = GI50 up to about 1.1 µM and inactive = higher.

For `CC1CC2(OC2C)C(=O)OC2CCN(C)C/C=C(/COC(=O)C1(C)O)C2=O` (stereo not given), the GI50 in the experiment on SF-268, in the experiment with OVCAR-8, with ACHN, in the experiment on TK-10, with A549 and with Hs-578T was > 100 µM (inactive) in each case. Also, the GI50 with RXF 393, in the experiment with SK-MEL-5, with MCF7, with MDA-N, in the experiment with SN12C and in the experiment with COLO 205 was > 100 µM (inactive) throughout. Besides, the GI50 in the experiment with IGROV-1, in the experiment with HOP-62, in the experiment on LOX IMVI, with OVCAR-5, in the experiment with NCI-H23 and with U-251 was > 100 µM (inactive) in each case. Moreover, the GI50 in the experiment on MOLT-4 was > 10 µM (inactive).
As to `COc1ccc(/C=C2\Sc3nnc(-c4ccccc4)n3N=C2c2cc(F)c(Cl)cc2Cl)cc1OC`, the GI50 is 21 µM (inactive) in the experiment with SF-268; 48.9 µM (inactive) in the experiment on OVCAR-8; > 100 µM (inactive) in the experiment on ACHN; > 100 µM (inactive) in the experiment on TK-10; 20.6 µM (inactive) in the experiment with Hs-578T; 11.7 µM (inactive) in the experiment on RXF 393. In addition, the GI50 in the experiment with SK-MEL-5 is > 100 µM (inactive); in the experiment on MCF7, 19.8 µM (inactive); in the experiment on MDA-N it was 23.1 µM (inactive); in the experiment with IGROV-1, 40.4 µM (inactive); in the experiment with HOP-62, > 100 µM (inactive); with LOX IMVI, > 100 µM (inactive). For the same compound, the GI50 was > 100 µM (inactive) in the experiment on OVCAR-5; 51.2 µM (inactive) in the experiment with NCI-H23; > 100 µM (inactive) in the experiment on U-251; > 100 µM (inactive) in the experiment with NCI-H226; 0.948 µM (active) in the experiment with MOLT-4.
On to `Cc1cc2nnn(C3CCCO3)c2cc1C` (stereo not given), for which the GI50 with SF-268, in the experiment on OVCAR-8, in the experiment on TK-10, in the experiment on A549, in the experiment with Hs-578T and with RXF 393 was > 100 µM (inactive) in each case. Further, the GI50 in the experiment with SK-MEL-5, in the experiment on MCF7, in the experiment with MDA-N, in the experiment with SN12C, in the experiment with COLO 205 and in the experiment on IGROV-1 was > 100 µM (inactive) in each case. For the same compound, the GI50 in the experiment on HOP-62, in the experiment on OVCAR-5, in the experiment with NCI-H23, in the experiment on U-251, with NCI-H226 and with MOLT-4 was > 100 µM (inactive) each time.
For `Cc1ccc(C(=O)/C=C(\O)C(=O)NN=C(c2ccccc2)c2ccccc2)cc1`, the GI50 in the experiment on SF-268 is > 100 µM (inactive); with OVCAR-8, 76.4 µM (inactive); in the experiment on ACHN it was 45 µM (inactive); in the experiment with TK-10 it was > 100 µM (inactive); in the experiment on A549 it was 41.2 µM (inactive); in the experiment on Hs-578T, 56.9 µM (inactive). Also, the GI50 in the experiment on RXF 393 is > 100 µM (inactive); in the experiment on SK-MEL-5, 53.1 µM (inactive); in the experiment with MCF7, 54.6 µM (inactive); in the experiment with MDA-N, > 100 µM (inactive); with COLO 205, 40.4 µM (inactive); in the experiment on IGROV-1, 62.7 µM (inactive). Besides, the GI50 is 12.2 µM (inactive) with LOX IMVI; > 100 µM (inactive) in the experiment on OVCAR-5; > 100 µM (inactive) in the experiment with NCI-H23; 46.2 µM (inactive) in the experiment with U-251; > 100 µM (inactive) in the experiment with NCI-H226; 58.9 µM (inactive) in the experiment with MOLT-4.
As for `CN(N=O)N1C(=O)SCC(c2ccccc2)(c2ccccc2)C1=O`, the GI50 with SF-268 is 32.1 µM (inactive); with OVCAR-8, 16.2 µM (inactive); in the experiment with ACHN, 37.2 µM (inactive); in the experiment with TK-10, 50.2 µM (inactive); with A549, 7.98 µM (inactive); in the experiment with Hs-578T, 56.8 µM (inactive). Further, the GI50 in the experiment with RXF 393 was 22.3 µM (inactive); in the experiment on SK-MEL-5, 37.8 µM (inactive); in the experiment on MCF7, 20.9 µM (inactive); in the experiment on MDA-N, 28.4 µM (inactive); with SN12C, 31.6 µM (inactive); with COLO 205, 25.3 µM (inactive). Also, the GI50 in the experiment on HOP-62 is 65.9 µM (inactive); in the experiment with LOX IMVI it was 30 µM (inactive); with OVCAR-5, > 100 µM (inactive); with NCI-H23, > 100 µM (inactive); with U-251, 28.4 µM (inactive); in the experiment with NCI-H226 it was 14 µM (inactive). In the experiment on MOLT-4, the GI50 is 61.8 µM (inactive).
Regarding `NS(=O)(=O)c1cc2c(cc1Cl)N=C(CCC(=O)O)NS2(=O)=O`, the GI50 with SF-268, in the experiment with OVCAR-8, in the experiment with ACHN, in the experiment on TK-10, with A549 and in the experiment on Hs-578T was > 100 µM (inactive) each time. Also, the GI50 in the experiment with RXF 393, with SK-MEL-5, with MCF7, with MDA-N, in the experiment on SN12C and with COLO 205 was > 100 µM (inactive) throughout. For the same compound, the GI50 in the experiment on IGROV-1, in the experiment with HOP-62, in the experiment on LOX IMVI, in the experiment on OVCAR-5, in the experiment with NCI-H23 and in the experiment with U-251 was > 100 µM (inactive) each time. In addition, the GI50 in the experiment on NCI-H226 was > 100 µM (inactive).
Take `C=CC1=C(C)c2cc3[nH]c(c4c5nc(cc6[nH]c(cc1n2)c(C=O)c6CC)C(C)=C5C(=O)[C@@H]4C(=O)OC)[C@@H](CCC(=O)O)[C@@H]3C`: the GI50 in the experiment with SF-268 was 24.4 µM (inactive); in the experiment with OVCAR-8, 53.3 µM (inactive); in the experiment with ACHN, 46 µM (inactive); in the experiment on TK-10, > 100 µM (inactive); in the experiment with A549, > 100 µM (inactive); in the experiment with Hs-578T, > 100 µM (inactive). Moreover, the GI50 with RXF 393 is 1.79 µM (inactive); with SK-MEL-5, 30.3 µM (inactive); with MCF7, > 100 µM (inactive); in the experiment on MDA-N, > 100 µM (inactive); in the experiment with SN12C, > 100 µM (inactive); in the experiment on COLO 205, 95.7 µM (inactive). The GI50 with IGROV-1 was 63.5 µM (inactive); in the experiment with LOX IMVI, > 100 µM (inactive); in the experiment with OVCAR-5, > 100 µM (inactive); with NCI-H23, 24.7 µM (inactive); in the experiment on U-251, 9.25 µM (inactive); in the experiment on NCI-H226, > 100 µM (inactive). The GI50 in the experiment on MOLT-4 was 43.6 µM (inactive).
`CC(=O)c1ccc2c(c1)CC1(C2)Cc2cc3c(cc2C1=O)CCC3` (stereo not given): the GI50 with SF-268 was 28.9 µM (inactive); in the experiment on OVCAR-8 it was 16.1 µM (inactive); in the experiment on ACHN it was 16.1 µM (inactive); with TK-10, 25.7 µM (inactive); in the experiment with A549, 20.9 µM (inactive); in the experiment with Hs-578T, 27.6 µM (inactive). Besides, the GI50 with RXF 393 is 20.8 µM (inactive); in the experiment with SK-MEL-5 it was 10.3 µM (inactive); with MCF7 it was 20.8 µM (inactive); with MDA-N, 14.4 µM (inactive); with SN12C, 16.7 µM (inactive); with COLO 205 it was 14.9 µM (inactive). Moreover, the GI50 in the experiment on IGROV-1 was 19.8 µM (inactive); in the experiment with HOP-62 it was 28 µM (inactive); in the experiment with LOX IMVI it was 17.7 µM (inactive); in the experiment on OVCAR-5, 30.6 µM (inactive); in the experiment with NCI-H23, 21.5 µM (inactive); in the experiment on U-251 it was 30.3 µM (inactive). In addition, the GI50 with MOLT-4 was 4.28 µM (inactive).
In the case of `CCc1nc2c(n1CC)C(=O)c1ccccc1C2=O`, the GI50 with SF-268 is 69 µM (inactive); in the experiment with OVCAR-8, 32.8 µM (inactive); in the experiment with ACHN, 39 µM (inactive); in the experiment with TK-10 it was 22.1 µM (inactive); in the experiment on A549 it was 43.2 µM (inactive); in the experiment with Hs-578T, 67.6 µM (inactive). Further, the GI50 is 19.8 µM (inactive) in the experiment with RXF 393; > 10 µM (inactive) in the experiment on SK-MEL-5; 49.1 µM (inactive) with MCF7; > 10 µM (inactive) in the experiment on MDA-N; 27.8 µM (inactive) with SN12C; 16.8 µM (inactive) with COLO 205. Also, the GI50 is 24.5 µM (inactive) with IGROV-1; 42.5 µM (inactive) in the experiment with HOP-62; 47.2 µM (inactive) in the experiment with OVCAR-5; 46.8 µM (inactive) with NCI-H23; 44.2 µM (inactive) in the experiment on U-251; 28.6 µM (inactive) in the experiment with NCI-H226. The GI50 with MOLT-4 is 33.9 µM (inactive).
On to `O=C1CC(=O)NC(NN2C(=O)CSC2c2ccccc2)=N1` (stereo not given), for which the GI50 in the experiment with SF-268, in the experiment on OVCAR-8, in the experiment with ACHN, in the experiment with TK-10, with A549 and in the experiment with Hs-578T was > 100 µM (inactive) throughout. For the same compound, the GI50 in the experiment with RXF 393, in the experiment on SK-MEL-5, in the experiment on MCF7, with MDA-N, with SN12C and in the experiment with COLO 205 was > 100 µM (inactive) each time. Moreover, the GI50 in the experiment on IGROV-1, in the experiment with HOP-62, in the experiment with OVCAR-5, in the experiment on NCI-H23, in the experiment on U-251 and with NCI-H226 was > 100 µM (inactive) throughout. In the experiment on MOLT-4, the GI50 is > 100 µM (inactive).
As to `O=P(O)(O)CC1OC(CO)C(O)C1O` (stereo not given), the GI50 in the experiment with SF-268, in the experiment with OVCAR-8, with ACHN, in the experiment on TK-10, with A549 and in the experiment with Hs-578T was > 100 µM (inactive) in each case. Moreover, the GI50 in the experiment with RXF 393, in the experiment on SK-MEL-5, in the experiment on MCF7, in the experiment with MDA-N, in the experiment with SN12C and in the experiment with COLO 205 was > 100 µM (inactive) in each case. Moreover, the GI50 in the experiment with IGROV-1, in the experiment on LOX IMVI, with OVCAR-5, with NCI-H23, in the experiment on U-251 and in the experiment with NCI-H226 was > 100 µM (inactive) throughout. Also, the GI50 with MOLT-4 was > 100 µM (inactive).
